Results on four compounds are retold here after patent US4532255A, “Amidine compounds and anticomplement agent comprising same” (Torii & Co., Ltd., priority 1980, dated 1985).

The subject of one series is complement. The following applies: Y. Takada et al., Immunology 1978; cited from earlier work.
Series [1] has as its system complement mediated hemolysis. The experiment in a line: Inhibition of complement mediated hemolysis. Type of series: cell-based.
Description: The principle of this method is based on the fact that hemolysis is caused by the activation of complement, when the latter is added to a complex (immune complex) of erythrocytes and the antibody thereof. The degree of hemolysis varies in proportion to the amount of complement added. Therefore, when a known amount of complement admixed with a C1 esterase inhibitor is used, the hemolysis must be suppressed in proportion to the inhibitory activity.
A short description of series [2]: Toxicity, median lethal dose (LD50). The following applies: in vivo.
A further series has as its target T1, C1r (Homo sapiens, UniProt P00736).
T1 sequence (P00736 464-705 limits assumed): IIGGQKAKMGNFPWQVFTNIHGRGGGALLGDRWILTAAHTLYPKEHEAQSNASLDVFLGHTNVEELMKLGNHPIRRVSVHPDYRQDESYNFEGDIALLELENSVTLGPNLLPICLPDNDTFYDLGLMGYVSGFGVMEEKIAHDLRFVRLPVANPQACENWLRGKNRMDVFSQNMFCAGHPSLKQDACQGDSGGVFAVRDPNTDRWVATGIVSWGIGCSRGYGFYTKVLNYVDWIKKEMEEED
T1 sequence (P00736 18-463 partner limits assumed): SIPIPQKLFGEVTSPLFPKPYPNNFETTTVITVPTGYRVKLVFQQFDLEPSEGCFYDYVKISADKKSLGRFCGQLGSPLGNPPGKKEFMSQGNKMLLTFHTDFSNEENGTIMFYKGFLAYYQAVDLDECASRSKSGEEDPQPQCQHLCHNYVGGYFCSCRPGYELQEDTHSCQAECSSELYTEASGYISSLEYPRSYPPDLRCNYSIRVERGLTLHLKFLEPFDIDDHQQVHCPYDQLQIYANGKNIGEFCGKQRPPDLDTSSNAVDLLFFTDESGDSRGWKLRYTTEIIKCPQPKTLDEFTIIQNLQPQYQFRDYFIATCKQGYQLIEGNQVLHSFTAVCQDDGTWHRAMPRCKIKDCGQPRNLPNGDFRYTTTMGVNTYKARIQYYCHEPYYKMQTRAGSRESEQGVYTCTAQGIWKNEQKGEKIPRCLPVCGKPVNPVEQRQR
The experiment in a line: Anti-C1 esterase (C1r) activity (hydrolysis of AAME). The series is classed as biochemical. Here is the method:
The anti-Cl esterase ([…]) activity was determined according to the method of Okamura et al. [K. Okamura, M. Muramatsu and S. Fujii, Biochem. Biophys.

In the next series the test system is Forssman shock. The experiment in a line: Forssman shock (survival time after hemolysin). The series is classed as in vivo, Male Hartlay guinea pig. The conditions noted are these: 5 minutes before hemolysin. From the text:
Quite different from other animals, guinea pig has on the surface of its organs a specific antigen called Forssman antigen which specifically reacts with the antibody of sheep erythrocyte. Forssman shock is based on the above principle and is a shock caused by the administration of antibody of sheep erythrocyte to a guinea pig. The Forssman shock was investigated in detail by many researchers and it was definitely shown that this shock is a model case where the complement plays the principal part and that the shock is associated with a classical pathway in which the complement system is activated progressively starting from C1. Since the participation of complement in autoimmune diseases has been established, the Forssman shock can be said to be a useful means for testing a drug for autoimmune diseases. A drug effective for the treatment of Forssman shock is useful as a drug of autoimmune diseases. [Anti-trypsin, anti-plasmin, anti-kallikrein and anti-thrombin activities]
The experiment was performed according to the method of I. G. Offerness et al. [Biochem. Pharmacol., 27 (14), 1873-1878 (1978)]. Male Hartlay guinea pig of about 300 g in body weight was used. Each guinea pig of the control group was administered intravenously with 0.5 ml (minimum dose to cause the shock) of hemolysin (commercial hemolysin, 5,000 U as assayed by the method of Ogata) and the time elapsed until death was observed. For the test group, each guinea pig was administered intravenously with the test compound 5 minutes before the administration of hemolysin and the time (second) elapsed until death was observed.

The target of series [3] is T2, Thrombin (Homo sapiens, UniProt P00734). The experiment in a line: biochemical. The following applies: for inhibition at 10 µM: at 1×10^-5 M, read-out: Thrombin percentage inhibition.
The target of series [4] is T3, C1s (Homo sapiens, UniProt P09871).
T3 sequence (P09871 438-688 limits assumed): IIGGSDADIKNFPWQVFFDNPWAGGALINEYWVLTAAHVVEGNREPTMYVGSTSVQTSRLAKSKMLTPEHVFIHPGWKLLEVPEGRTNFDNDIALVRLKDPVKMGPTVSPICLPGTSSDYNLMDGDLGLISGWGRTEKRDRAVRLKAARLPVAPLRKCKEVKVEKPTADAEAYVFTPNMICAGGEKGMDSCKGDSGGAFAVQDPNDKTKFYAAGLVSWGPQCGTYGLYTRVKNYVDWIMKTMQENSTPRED
T3 sequence (P09871 16-437 partner limits assumed): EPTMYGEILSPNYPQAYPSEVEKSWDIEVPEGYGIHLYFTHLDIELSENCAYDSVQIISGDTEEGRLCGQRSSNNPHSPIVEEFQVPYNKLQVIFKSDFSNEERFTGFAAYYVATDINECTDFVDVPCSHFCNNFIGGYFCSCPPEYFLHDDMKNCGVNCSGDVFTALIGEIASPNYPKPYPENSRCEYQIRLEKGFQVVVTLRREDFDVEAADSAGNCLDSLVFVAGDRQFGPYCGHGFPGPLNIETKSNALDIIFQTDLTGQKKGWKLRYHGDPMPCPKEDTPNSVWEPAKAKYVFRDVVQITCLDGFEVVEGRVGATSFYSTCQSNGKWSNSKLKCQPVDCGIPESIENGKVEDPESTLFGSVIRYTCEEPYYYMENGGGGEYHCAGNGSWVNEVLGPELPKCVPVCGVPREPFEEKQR
The experiment in a line: biochemical. The conditions noted are these: ATEE hydrolysis; read-out: Anti-C1 activity, C1s ID50. Here is the method:
The anti-Cl esterase (Clr, Cls) activity was determined according to the method of Okamura et al. [K. Okamura, M. Muramatsu and S. Fujii, Biochem. Biophys. […] The figures in Table 2 have the following meanings:
Cls: Molar concentration of the test compound which inhibits 50% of the ability of Cls to hydrolyse ATEE (acetyltyrosin ethyl ester).

For series [5], the target named is T4, Plasmin (Homo sapiens, UniProt P00747). The experiment in a line: Anti-plasmin activity (hydrolysis of TAME). The following applies: molar concentration inhibiting 50% of TAME hydrolysis; read-out: Plasmin ID50. Type of series: biochemical. Here is the method:
(§1) The anti-trypsin, anti-plasmin, anti-kallikrein and anti-thrombin activities were determined according to the method of Muramatsu et al. [M. Muramatsu, T. Onishi, S. Makino, Y. Hayashi and S. Fujii, J. of Biochem., 58, 214 (1965)]. […] The compound No. corresponds to the compound number shown in Examples.

Series [6] addresses T5, Trypsin (Bos taurus, UniProt P00760).
T5 sequence (P00760 24-246): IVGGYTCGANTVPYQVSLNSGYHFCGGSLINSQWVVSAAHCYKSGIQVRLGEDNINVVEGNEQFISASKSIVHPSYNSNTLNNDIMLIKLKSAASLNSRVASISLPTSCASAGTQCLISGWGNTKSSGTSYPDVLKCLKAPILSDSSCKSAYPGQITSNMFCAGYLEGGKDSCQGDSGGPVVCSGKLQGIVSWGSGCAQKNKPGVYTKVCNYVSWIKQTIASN
The experiment in a line: Anti-trypsin activity (hydrolysis of TAME). Type of series: biochemical. The conditions noted are these: molar concentration inhibiting 50% of TAME hydrolysis; read-out: Trypsin ID50. As to the method: as §1

The next series relates to Kallikrein. The experiment in a line: Anti-kallikrein activity (hydrolysis of TAME). Type of series: biochemical. The following applies: molar concentration inhibiting 50% of TAME hydrolysis; read-out: Kallikrein ID50.
In series [7] the target is T5, Trypsin. The conditions noted are these: G. Wagner et al., Pharmazie 1977; cited from earlier work.
The target of series [8] is T2, Thrombin. The conditions noted are these: G. Wagner et al., Pharmazie 1977; cited from earlier work.
Series [9] addresses T4, Plasmin. The following applies: G. Wagner et al., Pharmazie 1977; cited from earlier work.
In series [10] the target is T3, C1s. The experiment in a line: biochemical. The following applies: at 1×10^-5 M; read-out: Anti-C1 activity, C1s percent inhibition.

The structures appear in SMILES notation. Several values for one entry are separate records, joined by “and”; a condition that tells them apart may be missing. Equal values may be shown once.

T4 sequence (P00747 581-810 limits assumed, species assumed): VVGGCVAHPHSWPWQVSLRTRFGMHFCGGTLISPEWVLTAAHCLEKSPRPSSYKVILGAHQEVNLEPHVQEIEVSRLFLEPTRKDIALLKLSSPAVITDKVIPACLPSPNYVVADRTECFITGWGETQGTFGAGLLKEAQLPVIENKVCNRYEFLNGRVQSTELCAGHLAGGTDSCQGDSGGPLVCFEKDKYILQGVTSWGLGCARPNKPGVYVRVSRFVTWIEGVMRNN
T4 sequence (P00747 97-580 partner limits assumed, species assumed): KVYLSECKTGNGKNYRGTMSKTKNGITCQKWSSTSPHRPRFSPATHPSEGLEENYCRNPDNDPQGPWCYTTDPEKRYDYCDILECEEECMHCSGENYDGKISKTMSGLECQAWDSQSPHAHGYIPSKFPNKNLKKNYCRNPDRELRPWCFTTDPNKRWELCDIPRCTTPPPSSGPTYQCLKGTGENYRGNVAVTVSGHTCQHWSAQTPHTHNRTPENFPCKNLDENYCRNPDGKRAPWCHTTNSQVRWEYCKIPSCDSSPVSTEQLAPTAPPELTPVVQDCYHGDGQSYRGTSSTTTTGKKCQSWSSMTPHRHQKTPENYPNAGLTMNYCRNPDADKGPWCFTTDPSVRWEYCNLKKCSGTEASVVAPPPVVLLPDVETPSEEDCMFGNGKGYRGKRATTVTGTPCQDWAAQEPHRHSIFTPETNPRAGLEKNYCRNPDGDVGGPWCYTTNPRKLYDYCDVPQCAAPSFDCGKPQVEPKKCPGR

Regarding `CC(=O)N[C@@H](CC(C)C)C(=O)N[C@@H](CC(C)C)C(=O)N[C@H](C=O)CCCNC(=N)N` [Leupeptin, reference compound], in the series with complement, the “Anti-complement activity in words” value was “having an anti-complement activity”. The “Inhibition of complement mediated hemolysis (%)” value (“Inhibition … (%)” below) in [1] (1 × 10^-4) was found to be 97%; in [1] (1 × 10^-5), 52%; in [1] (1 × 10^-6), 0%; in [1] (1 × 10^-7) it was 0%.
Take `N=C(N)c1ccc2cc(OC(=O)c3ccc(CN)cc3)ccc2c1` [Compound 22, 6-amidino-2-naphthyl 4-aminomethylbenzoate]: the LD50 came out at 200 mg/kg in series [2] (ip) and 2500 mg/kg in series [2] (po). Besides, the IC50 on C1r (AAME hydrolysis, read-out: Anti-C1 activity, C1r ID50) amounted to 0.3 µM; at C1s [4] it was 0.2 µM; on Plasmin [5], 4 µM; on Trypsin [6], 4 µM; in the series on Kallikrein it was 3 µM. Further, the “Time elapsed until death, individual animal” value is 240 s and 630 s and 250 s and 570 s and 440 s and 675 s in the series with Forssman shock (1.0 mg/kg intravenous); 745 s and 1410 s and 600 s and 885 s and 455 s and 435 s in the series on Forssman shock (3.0 mg/kg intravenous). For the same compound, the “Time elapsed until death, average” value amounted to 468 s with Forssman shock (1.0 mg/kg intravenous, control average 465 (No. 27), 428 (No. 22)) and 755 s in the series on Forssman shock (3.0 mg/kg intravenous, control average 428). Further, on Thrombin [3], the inhibition at 10 µM came out at 26%. The “Inhibition … (%)” value was determined as 100% in series [1] (1 × 10^-4), 99% in series [1] (1 × 10^-5), 90% in series [1] (1 × 10^-6) and 48% in series [1] (1 × 10^-7).
In the case of `N=C(N)c1ccc2cc(O)ccc2c1` [6-amidino-2-naphthol, reference compound], the “Trypsin inhibition in words” value on Trypsin [7] is “inhibits trypsin, plasmin and thrombin”. Further, the “Thrombin inhibition in words” value at Thrombin [8] was “inhibits trypsin, plasmin and thrombin”. Moreover, the IC50 was above 1000 µM on Thrombin [3] (molar concentration inhibiting 50% of TAME hydrolysis, read-out: Thrombin ID50); 440 µM at Plasmin [5]; above 1000 µM on Trypsin [6]; above 1000 µM in the series with Kallikrein. Moreover, the “Plasmin inhibition in words” value on Plasmin [9] is “inhibits trypsin, plasmin and thrombin”.
`N=C(N)c1ccc2cc(OC(=O)CCc3ccc(N)cc3)ccc2c1` [Compound 51, 6-amidino-2-naphthyl 4-aminophenylpropionate]: the inhibition at 10 µM on C1r (at 1×10^-5 M, read-out: Anti-C1 activity, C1r percent inhibition) turned out to be 18%; at C1s [10] it was 21%; at Thrombin [3] it was 35%. The IC50 turned out to be 6 µM at Plasmin [5] and 10 µM at Trypsin [6]. Also, the “Inhibition … (%)” value in series [1] (1 × 10^-4) was found to be 54%; in series [1] (1 × 10^-5), 6%; in [1] (1 × 10^-6) it was 1%; in series [1] (1 × 10^-7), 0%.

In general, LD50 refers to the dose at which mortality reaches 50%. A high value points to a less toxic substance. As a reminder, the inhibition is the percentage by which the read-out fell short of the control.
